Paper PMC10978157, “Environmental exposure to glyphosate does not inhibit human acetylcholinesterase and butyrylcholinesterase” (Archives of Industrial Hygiene and Toxicology, 2024)

Assays:
Type in all cases: biochemical
human recombinant AChE [1] = molecular target: T1, human recombinant AChE (Homo sapiens, UniProt P22303); assay: Ellman assay; joint IC50 over all ATCh concentrations; settings: read-out: Approx. IC50
T1 construct: recombinant human AChE, gift from F. Nachon
Source text: Ellman assay; joint IC50 over all ATCh concentrations on human recombinant AChE

human recombinant AChE [2] = molecular target: T1, human recombinant AChE; assay: Ellman assay
Source text: Ellman assay on human recombinant AChE

[3] = molecular target: T2, human BChE isolated from plasma (Homo sapiens, UniProt P06276); assay: Ellman assay; joint IC50 over all ATCh concentrations; settings: read-out: Approx. IC50
T2 construct: native, purified from human plasma, gift from F. Nachon
Source text: Ellman assay; joint IC50 over all ATCh concentrations on human BChE isolated from plasma

[4] = molecular target: T2, human BChE isolated from plasma; assay: Ellman assay
Source text: Ellman assay on human BChE isolated from plasma

T1 sequence (P22303 32-614): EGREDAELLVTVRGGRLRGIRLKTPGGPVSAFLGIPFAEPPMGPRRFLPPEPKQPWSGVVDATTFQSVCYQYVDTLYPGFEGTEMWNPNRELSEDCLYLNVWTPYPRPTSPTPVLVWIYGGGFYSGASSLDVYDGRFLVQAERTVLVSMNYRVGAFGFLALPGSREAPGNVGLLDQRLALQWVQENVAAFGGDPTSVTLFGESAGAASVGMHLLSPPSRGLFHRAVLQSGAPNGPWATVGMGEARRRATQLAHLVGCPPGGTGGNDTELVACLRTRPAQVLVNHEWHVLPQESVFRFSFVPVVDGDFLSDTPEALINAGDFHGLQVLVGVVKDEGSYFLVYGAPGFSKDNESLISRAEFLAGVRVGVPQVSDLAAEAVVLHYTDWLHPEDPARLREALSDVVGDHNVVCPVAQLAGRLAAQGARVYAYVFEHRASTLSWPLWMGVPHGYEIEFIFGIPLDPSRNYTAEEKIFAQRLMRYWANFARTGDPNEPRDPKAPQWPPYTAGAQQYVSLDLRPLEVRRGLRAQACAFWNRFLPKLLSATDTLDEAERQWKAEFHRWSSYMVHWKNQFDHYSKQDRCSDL
T2 sequence (P06276 29-602): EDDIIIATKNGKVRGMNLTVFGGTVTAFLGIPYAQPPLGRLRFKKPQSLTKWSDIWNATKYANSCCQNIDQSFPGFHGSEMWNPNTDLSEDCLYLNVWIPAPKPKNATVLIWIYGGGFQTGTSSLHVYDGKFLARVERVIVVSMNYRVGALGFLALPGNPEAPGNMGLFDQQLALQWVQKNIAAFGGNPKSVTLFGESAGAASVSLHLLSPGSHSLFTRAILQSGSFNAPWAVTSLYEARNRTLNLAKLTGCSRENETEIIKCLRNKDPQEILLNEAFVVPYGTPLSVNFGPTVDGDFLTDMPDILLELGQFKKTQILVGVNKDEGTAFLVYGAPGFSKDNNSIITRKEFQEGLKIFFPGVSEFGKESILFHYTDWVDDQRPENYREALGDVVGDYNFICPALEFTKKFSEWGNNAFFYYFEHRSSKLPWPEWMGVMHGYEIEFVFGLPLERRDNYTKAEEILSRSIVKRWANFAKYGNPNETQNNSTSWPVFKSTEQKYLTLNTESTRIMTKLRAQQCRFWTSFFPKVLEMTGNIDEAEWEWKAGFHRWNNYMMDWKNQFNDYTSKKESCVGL

For `O=C(O)CNCP(=O)(O)O` [glyphosate, N-(phosphonomethyl)glycine], the IC50 (human recombinant AChE [1]) was ~25.1 mM, the Ki (human recombinant AChE [2]) was 28.4 ± 2.7 mM and the IC50 [3] was ~20 mM. It also gave a Ki [4] of 19.3 ± 1.8 mM.
